Active and inactive are the calls of the source. No cut-off for these calls is given here.
How the values were obtained:
[1] = biological target: T1, P2X purinoceptor 7 (Homo sapiens) (UniProt Q99572); experiment: Antagonist activity at human P2X7 receptor expressed in HEK293 cells assessed as inhibition of ATP-induced ethidium iodide uptake at 10 uM preincubated for 10 mins followed by ATP addition measured after 20 mins by FLIPR assay relative to 1 mM ATP; type: cell-based
T1 sequence (whole entry): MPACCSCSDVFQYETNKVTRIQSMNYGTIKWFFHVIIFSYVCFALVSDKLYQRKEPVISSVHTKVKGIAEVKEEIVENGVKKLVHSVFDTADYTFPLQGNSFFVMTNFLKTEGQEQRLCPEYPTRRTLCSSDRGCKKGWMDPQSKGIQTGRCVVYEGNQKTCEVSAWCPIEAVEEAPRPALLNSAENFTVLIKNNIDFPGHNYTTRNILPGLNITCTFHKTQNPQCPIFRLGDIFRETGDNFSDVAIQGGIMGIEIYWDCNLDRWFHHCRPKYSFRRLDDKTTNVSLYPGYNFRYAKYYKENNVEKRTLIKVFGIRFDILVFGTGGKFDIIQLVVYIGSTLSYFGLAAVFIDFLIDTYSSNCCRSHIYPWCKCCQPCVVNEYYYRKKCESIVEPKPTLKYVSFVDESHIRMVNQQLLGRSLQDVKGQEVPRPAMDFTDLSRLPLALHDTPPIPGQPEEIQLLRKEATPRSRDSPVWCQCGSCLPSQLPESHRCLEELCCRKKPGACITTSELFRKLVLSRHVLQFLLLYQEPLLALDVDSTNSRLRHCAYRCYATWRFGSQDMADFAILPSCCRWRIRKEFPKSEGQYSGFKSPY

[2] = Cytotoxicity against Swiss mouse peritoneal macrophages after 24 hrs by LDH-release assay; type: cell-based, Peritoneal macrophage
[3] = biological target: T2, P2X purinoceptor 7 (Homo sapiens, UniProt Q99572); experiment: Antagonist activity at human P2X7 receptor expressed in HEK293 cells assessed as inhibition of ATP-induced ethidium iodide uptake preincubated for 10 mins followed by ATP addition measured after 20 mins by spectrofluorometric analysis; type: cell-based
T2 sequence (Q99572 whole entry): T1 sequence (whole entry)

[4] = biological target: P2X purinoceptor 7 (Mus musculus) (UniProt Q9Z1M0); experiment: Antagonist activity at P2X7 receptor in Swiss mouse peritoneal macrophages assessed as inhibition of ATP-induced propidium iodide uptake at 10 uM after 30 mins by FLIPR assay relative to 1 mM ATP
[5] = system: Peritoneal macrophage; experiment: Toxicity in Swiss mouse peritoneal macrophages assessed as LDH release at 10 uM after 60 mins relative to 0.05% Triton X-100; type: cell-based; conditions: 1 h
[6] = biological target: T3, P2X purinoceptor 7 (Mus musculus, UniProt Q9Z1M0); experiment: (§1) Antagonist activity at P2X7 receptor in Swiss mouse peritoneal macrophages assessed as inhibition of ATP-induced propidium iodide uptake after 25 mins by flow cytometric analysis
T3 sequence (Q9Z1M0 whole entry): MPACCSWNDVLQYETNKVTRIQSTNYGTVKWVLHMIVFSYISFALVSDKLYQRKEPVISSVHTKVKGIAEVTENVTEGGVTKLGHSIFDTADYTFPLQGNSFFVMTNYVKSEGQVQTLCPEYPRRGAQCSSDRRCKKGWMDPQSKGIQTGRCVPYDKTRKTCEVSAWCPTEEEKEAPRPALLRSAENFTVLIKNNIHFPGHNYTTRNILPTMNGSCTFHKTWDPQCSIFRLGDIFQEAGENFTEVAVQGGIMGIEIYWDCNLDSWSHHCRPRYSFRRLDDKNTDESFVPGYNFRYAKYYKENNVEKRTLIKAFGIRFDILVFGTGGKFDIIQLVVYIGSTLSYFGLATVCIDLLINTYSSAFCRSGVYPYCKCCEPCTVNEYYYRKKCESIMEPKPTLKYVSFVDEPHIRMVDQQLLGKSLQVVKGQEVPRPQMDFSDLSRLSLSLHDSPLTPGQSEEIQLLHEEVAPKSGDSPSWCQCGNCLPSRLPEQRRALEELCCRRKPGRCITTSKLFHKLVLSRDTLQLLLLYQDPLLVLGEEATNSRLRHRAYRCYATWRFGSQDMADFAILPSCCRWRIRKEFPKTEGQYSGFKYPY

[7] = biological target: T4, P2X purinoceptor 7 (Mus musculus) (UniProt Q9Z1M0); experiment: as §1
T4 sequence (whole entry): T3 sequence (Q9Z1M0 whole entry)

[8] = biological target: T3, P2X purinoceptor 7; experiment: Antagonist activity at P2X7 receptor in Swiss mouse peritoneal macrophages assessed as inhibition of ATP-induced current at holding potential of -60 mV preincubated for 5 mins followed by ATP addition measured after 5 mins by Whole cell patch-clamp analysis
[9] = biological target: T4, P2X purinoceptor 7 (Mus musculus); experiment: Antagonist activity at mouse P2X7 receptor expressed in HEK293 cells assessed as inhibition of ATP-induced ethidium iodide uptake at 10 uM preincubated for 10 mins followed by ATP addition measured after 20 mins by FLIPR assay relative to 1 mM ATP; type: cell-based
[10] = biological target: T1, P2X purinoceptor 7 (Homo sapiens); experiment: Antagonist activity at human P2X7 receptor expressed in HEK293 cells assessed as inhibition of ATP-induced ethidium iodide uptake at 750 nM preincubated for 10 mins followed by ATP addition measured after 20 mins by FLIPR assay relative to 1 mM ATP; type: cell-based
[11] = system: Peritoneal macrophage; experiment: Toxicity in Swiss mouse peritoneal macrophages assessed as LDH release at 750 nM after 60 mins relative to 0.05% Triton X-100; type: cell-based; conditions: 1 h, 0.75 µM
[12] = biological target: T3, P2X purinoceptor 7; experiment: Antagonist activity at P2X7 receptor in Swiss mouse peritoneal macrophages assessed as inhibition of BzATP-induced current at holding potential of -60 mV preincubated for 5 mins followed by BzATP addition measured after 5 mins by Whole cell patch-clamp analysis
[13] = biological target: P2X purinoceptor 7 (Mus musculus) (UniProt Q9Z1M0); experiment: Antagonist activity at P2X7 receptor in Swiss mouse peritoneal macrophages assessed as inhibition of ATP-induced propidium iodide uptake at 750 nM after 30 mins by FLIPR assay relative to 1 mM ATP
[14] = biological target: T3, P2X purinoceptor 7; experiment: Antagonist activity at P2X7 receptor in Swiss mouse peritoneal macrophages assessed as inhibition of BzATP-induced ethidium iodide uptake after 30 mins by spectrofluorometric analysis
[15] = system: Mus musculus; experiment: Anti-inflammatory activity in po dosed Swiss Webster mouse assessed as inhibition of ATP-induced paw edema pretreated for 60 mins followed by ATP administration and measured after 30 mins; type: functional
[16] = system: Mus musculus; experiment: Anti-inflammatory activity in ip dosed Swiss Webster mouse assessed as inhibition of carrageenan-induced paw edema pretreated for 60 mins followed by carrageenan administration and measured after 30 mins; type: functional
[17] = biological target: T2, P2X purinoceptor 7; experiment: Antagonist activity at human P2X7 receptor in PMA-differentiated THP-1 macrophages assessed as inhibition of ATP-induced IL-1beta release preincubated for 30 mins followed by ATP addition measured after 30 mins by ELISA
[18] = system: Mus musculus; experiment: Anti-inflammatory activity in po dosed Swiss Webster mouse assessed as inhibition of carrageenan-induced paw edema pretreated for 60 mins followed by carrageenan administration and measured after 60 mins; type: functional
[19] = biological target: T3, P2X purinoceptor 7; experiment: Antagonist activity at P2X7 receptor in LPS/IFNc-differentiated Swiss mouse peritoneal macrophages assessed as inhibition of ATP-induced IL-1beta release preincubated for 30 mins followed by LPS stimulation for 4 hrs using cells treated with ATP for 30 mins by ELISA
[20] = system: Mus musculus; experiment: Anti-inflammatory activity in ip dosed Swiss Webster mouse assessed as inhibition of ATP-induced paw edema pretreated for 60 mins followed by ATP administration and measured after 30 mins; type: functional
[21] = biological target: T2, P2X purinoceptor 7; experiment: Antagonist activity at human P2X7 receptor expressed in human 1321N1 cells assessed as reduction in agonist-induced intracellular Ca2+ levels preincubated for 3 mins followed by agonist addition measured up to 2 mins by Fluo-4 dye-based FLIPR assay; type: cell-based
[22] = biological target: T3, P2X purinoceptor 7; experiment: Antagonist activity at mouse P2X7 receptor expressed in human 1321N1 cells assessed as reduction in agonist-induced intracellular Ca2+ levels preincubated for 3 mins followed by agonist addition measured up to 2 mins by Fluo-4 dye-based FLIPR assay; type: cell-based
[23] = biological target: T2, P2X purinoceptor 7; experiment: Antagonist activity at human P2X7 receptor expressed in human THP1 cells assessed as reduction in BzATP-induced IL-1beta levels preincubated for 30 mins followed by BzATP addition measured after 30 mins by ELISA; type: cell-based
[24] = biological target: T2, P2X purinoceptor 7; experiment: Antagonist activity at human P2X7 receptor expressed in human THP1 cells assessed as reduction in BzATP-induced pore formation by measuring YO-PRO uptake by FLIPR assay; type: cell-based
[25] = biological target: P2X purinoceptor 7 (Rattus norvegicus, UniProt Q64663); experiment: Antagonist activity at rat P2X7 receptor expressed in human 1321N1 cells assessed as reduction in agonist-induced intracellular Ca2+ levels preincubated for 3 mins followed by agonist addition measured up to 2 mins by Fluo-4 dye-based FLIPR assay; type: cell-based
Chain of P2X purinoceptor 7 (Rattus norvegicus, UniProt Q64663) (Q64663 whole entry): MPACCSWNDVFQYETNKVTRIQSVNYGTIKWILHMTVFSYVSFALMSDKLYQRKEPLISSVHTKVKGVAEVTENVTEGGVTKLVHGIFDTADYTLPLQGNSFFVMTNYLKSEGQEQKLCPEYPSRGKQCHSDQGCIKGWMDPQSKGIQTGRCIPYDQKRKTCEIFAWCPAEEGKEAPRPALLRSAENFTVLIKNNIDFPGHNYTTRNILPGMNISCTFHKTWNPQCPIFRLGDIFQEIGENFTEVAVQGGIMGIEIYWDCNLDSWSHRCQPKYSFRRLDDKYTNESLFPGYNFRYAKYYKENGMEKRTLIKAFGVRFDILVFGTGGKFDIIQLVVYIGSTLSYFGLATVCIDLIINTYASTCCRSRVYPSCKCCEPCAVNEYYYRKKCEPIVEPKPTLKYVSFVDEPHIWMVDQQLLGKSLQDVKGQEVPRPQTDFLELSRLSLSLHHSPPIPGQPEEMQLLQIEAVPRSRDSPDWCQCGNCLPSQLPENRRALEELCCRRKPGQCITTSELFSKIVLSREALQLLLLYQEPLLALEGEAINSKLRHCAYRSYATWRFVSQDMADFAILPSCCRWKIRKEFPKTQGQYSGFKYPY

Row | SMILES | inhibition [1] | IC50 [3] | inhibition [4] | IC50 [6] | inhibition [7] | IC50 [8] | Activity [5] | further results
1 | CCCCOCc1cn(-c2ccccc2)nn1 | 67.5% | – | 78.1% | – | – | – | 32.33% | inhibition [9]: Active
2 | CCCCCCCCCC(=O)OCc1cn(-c2ccc(Cl)cc2)nn1 | 78% | 0.108 µM | 76% | 0.107 µM | Dose-dependent effect | 0.103 µM | 8% | CC50 at 24 h [2]: 2.84 µM
3 | O=Cc1cn(-c2ccccc2)nn1 | 95.3% | 0.478 µM | 84.6% | 0.167 µM | Dose-dependent effect | 0.103 µM | 10.51% | CC50 at 24 h [2]: 3.74 µM; inhibition [9]: Active
4 | CCOc1ccc(Nc2ccc(/C(=C3C=C/C(=[N+](/CC)Cc4cccc(S(=O)(=O)[O-])c4)C=C/3C)c3ccc(N(CC)Cc4cccc(S(=O)(=O)[O-])c4)cc3C)cc2)cc1.[Na+] [BRILLIANT BLUE G] | – | 0.552 µM | – | 0.343 µM | Dose-dependent effect | 0.109 µM | – | inhibition [10]: 90.1%; Activity [11]: 13.22%; IC50 [12]: 0.407 µM; inhibition [13]: 78.9%; IC50 [14]: 0.432 µM
5 | Clc1cccc(-n2nnnc2NCc2ccccc2Oc2ccccn2)c1Cl | – | – | – | – | – | – | – | IC50 [21]: 0.02 to 0.15 µM; IC50 [22]: 0.02 to 0.15 µM; IC50 [23]: 0.0372 µM; IC50 [24]: 0.00661 µM; IC50 [25]: 0.02 to 0.15 µM
6 | CCCCCCCCCC(=O)OCc1cnn(-c2ccccc2)n1 | 19.2% | – | 29.5% | – | – | – | 42.5% | –
7 | CC(=O)OCc1cn(-c2cc(Cl)cc(Cl)c2)nn1 | 29.4% | – | 65.2% | – | – | – | 45.33% | –
8 | CCCCCC(=O)OCc1cn(-c2ccccc2)nn1 | 18.2% | – | 44.6% | – | – | – | 15.83% | –
9 | COc1ccc(-n2cc(CO)nn2)cc1 | 94.1% | 0.932 µM | 86.3% | 0.488 µM | Dose-dependent effect | 0.341 µM | 9.7% | CC50 at 24 h [2]: 0.363 µM; inhibition [9]: Active
10 | O/N=C/c1cn(-c2ccccc2)nn1 | 64.3% | – | 58% | – | – | – | 28.59% | –
11 | O/N=C/c1cn(-c2cc(Cl)cc(Cl)c2)nn1 | 62.1% | – | 58% | – | – | – | 29.47% | –
12 | CCCCOCc1cn(-c2cc(Cl)ccc2Cl)nn1 | 90.1% | 0.621 µM | 79.8% | 0.317 µM | Dose-dependent effect | 0.316 µM | 11.66% | CC50 at 24 h [2]: 0.505 µM
13 | CCCOCc1cn(-c2cc(Cl)cc(Cl)c2)nn1 | 33.7% | – | 24% | – | – | – | 14.03% | –
14 | CC(=O)OCc1cn(-c2ccc(Cl)cc2)nn1 | 9.89% | – | 23.2% | – | – | – | 19.66% | –
15 | O/N=C/c1cnn(-c2ccccc2)n1 | 94.3% | 0.897 µM | 83% | 0.349 µM | Dose-dependent effect | 0.457 µM | 12.66% | CC50 at 24 h [2]: 0.25 µM; inhibition [9]: Active

Now from value to molecule, other results behind:

Row | inhibition [1] | IC50 [3] | inhibition [4] | IC50 [6] | inhibition [7] | IC50 [8] | SMILES | Activity [5] | further results
16 | 90.2% | 0.522 µM | 84.2% | 0.096 µM | Dose-dependent effect | 0.081 µM | OCc1cnn(-c2ccccc2)n1 | 9.18% | CC50 at 24 h [2]: 2.36 µM; inhibition [9]: Active
17 | – | 0.086 µM | – | – | – | – | COc1ccc(CC(=O)NC(N/C(=N/C#N)Nc2cccc3ncccc23)C(C)(C)C)cc1OC (stereo unspecified) | – | ID50 [15]: 0.1097 µg/kg; IC50 [12]: 0.0469 µM; ID50 [16]: 0.1423 µg/kg; IC50 [14]: 0.0633 µM; IC50 [17]: 0.082 µM; ID50 [18]: 0.119 µg/kg; IC50 [19]: 0.112 µM; ID50 [20]: 0.1058 µg/kg
18 | 30.1% | – | 10.9% | – | – | – | OCc1cn(-c2ccccc2)nn1 | 20.98% | –
19 | 45.3% | – | 75.5% | – | – | – | CCOCc1cn(-c2cc(Cl)ccc2Cl)nn1 | 42.66% | –
20 | 44% | – | 36.7% | – | – | – | O=Cc1cn(-c2cc(Cl)ccc2Cl)nn1 | 13.73% | –
21 | 79.1% | – | 70% | – | – | – | CCOCc1cnn(-c2ccccc2)n1 | 26.49% | inhibition [9]: Active
22 | 81% | – | 84% | – | – | – | CC(=O)OCc1cn(-c2ccccc2)nn1 | 36.39% | –

— ChEMBL document CHEMBL4130413, “1-Aryl-1H- and 2-aryl-2H-1,2,3-triazole derivatives blockade P2X7 receptor in vitro and inflammatory response in vivo” (Eur J Med Chem, 2017)
